Data on 21 compounds can be found in patent US20230295157A1, “3-(1H-IMIDAZOL-2-YL)-2,3,8,8A-TETRAHYDROINDOLIZIN-5(1H)-ONE DERIVATIVES USEFUL AS FACTOR XIA INHIBITORS” (JANSSEN PHARMACEUTICA NV, priority 2020, published 2023).

One experiment concerns the target Factor XIa (Homo sapiens (Human), UniProt P03951). Put plainly: Factor XIa inhibition assay (FLINT) utilizing a fluorophore-quencher pair peptide substrate. The format is biochemical. Conditions: 30 min preincubation, kinetic reads over 30 min, 5Fam-KLTRAETV-K5Tamra substrate 15 μM; read-out: FXIa Kin Inh IC50. In short, it runs like this: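 FXIa ([…]) preincubated 30 min with compound (11-point 3-fold dilution, top 100 nM, 2% DMSO), then 15 μM quenched FXI Arg146-based peptide added; Tris pH 7.5, CaCl2, BSA, CHAPS. Fluorescence 485/520 nm read kinetically every 5 min over 30 min at RT; IC50 by 4-parameter fit.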

For the next experiment, the target named is human plasma kallikrein (Homo sapiens (Human), UniProt P03952). Put plainly: Kallikrein inhibition assay (FLINT) utilizing a quenched AMC peptide substrate. The format is biochemical. The settings on record: 30 min preincubation, kinetic reads over 30 min, Z-Gly-Pro-Arg-AMC substrate 50 μM; read-out: Kallikrein Kin Inh IC50. A digest of the protocol:
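Enzyme (2 nM final) pre-incubated 30 min at room temperature with compound (11-point, 3-fold, top 1 μM, 2% DMSO), then 50 μM Z-Gly-Pro-Arg-AMC added in Tris pH 7.5 buffer. Kinetic fluorescence 340/440 nm every 5 min over 30 min; IC50 from 4-parameter logistic fit.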

Chain of human plasma kallikrein (P03952 391-638): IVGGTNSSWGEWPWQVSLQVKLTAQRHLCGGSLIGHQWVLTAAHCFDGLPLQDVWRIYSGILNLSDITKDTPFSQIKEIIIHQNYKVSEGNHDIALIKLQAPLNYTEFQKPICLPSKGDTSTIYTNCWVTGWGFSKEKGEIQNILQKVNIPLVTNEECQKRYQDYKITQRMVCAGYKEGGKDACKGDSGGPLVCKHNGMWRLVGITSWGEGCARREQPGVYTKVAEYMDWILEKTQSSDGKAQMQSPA
Chain of human plasma kallikrein (P03952 20-390 partner): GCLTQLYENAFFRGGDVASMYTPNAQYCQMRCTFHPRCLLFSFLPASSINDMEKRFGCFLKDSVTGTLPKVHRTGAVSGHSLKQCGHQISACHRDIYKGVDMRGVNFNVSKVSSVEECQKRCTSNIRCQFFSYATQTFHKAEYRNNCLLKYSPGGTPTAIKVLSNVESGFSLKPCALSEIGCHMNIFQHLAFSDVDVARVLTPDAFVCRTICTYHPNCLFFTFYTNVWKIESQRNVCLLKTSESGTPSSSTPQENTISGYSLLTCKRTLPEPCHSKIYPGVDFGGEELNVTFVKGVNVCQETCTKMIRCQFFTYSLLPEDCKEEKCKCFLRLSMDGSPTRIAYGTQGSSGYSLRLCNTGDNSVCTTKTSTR
Chain of Factor XIa (P03951 388-625): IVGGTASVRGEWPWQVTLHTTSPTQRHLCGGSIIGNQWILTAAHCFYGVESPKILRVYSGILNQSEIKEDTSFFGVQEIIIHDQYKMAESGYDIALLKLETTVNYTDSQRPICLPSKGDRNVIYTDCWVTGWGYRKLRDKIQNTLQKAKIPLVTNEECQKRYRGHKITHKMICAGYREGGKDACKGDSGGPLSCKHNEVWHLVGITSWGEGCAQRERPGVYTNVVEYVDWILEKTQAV
Chain of Factor XIa (P03951 19-387 partner): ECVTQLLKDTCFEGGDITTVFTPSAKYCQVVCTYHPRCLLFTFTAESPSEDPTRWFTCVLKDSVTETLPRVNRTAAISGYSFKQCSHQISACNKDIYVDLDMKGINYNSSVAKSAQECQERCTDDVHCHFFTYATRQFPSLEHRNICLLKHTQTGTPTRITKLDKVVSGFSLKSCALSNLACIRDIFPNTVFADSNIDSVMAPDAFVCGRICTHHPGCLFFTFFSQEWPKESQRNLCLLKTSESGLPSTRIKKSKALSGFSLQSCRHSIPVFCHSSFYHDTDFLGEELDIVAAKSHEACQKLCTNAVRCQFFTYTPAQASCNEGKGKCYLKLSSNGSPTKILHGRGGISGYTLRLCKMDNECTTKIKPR

The term IC50 denotes the concentration that inhibits the measured activity by half. In the case of `O=C1C=C(c2c(-n3cnnn3)ccc(Cl)c2F)C[C@@H]2CC[C@H](c3ncc(-c4ccnc(N5CCC[C@@H](O)C5)c4F)[nH]3)N12` (stereo in doubt) [Example 187, (3R,8aS)-7-(3-chloro-2-fluoro-6-(1H-tetrazol-1-yl)phenyl)-3-(5-(3-fluoro-2-((R)-3-hydroxypiperidin-1-yl)pyridin-4-yl)-1H-imidazol-2-yl)-2,3,8,8a-tetrahydroindolizin-5(1H)-one], the results for the IC50 on Factor XIa and on human plasma kallikrein were 3.7 nM and 4.1 nM, respectively.

Turning to `COc1c(-c2cnc(C3CC[C@H]4CC(c5c(-n6cnnn6)ccc(Cl)c5F)=CC(=O)N34)[nH]2)ccnc1N` (stereo in doubt) [Example 382, (3R,8aS)-3-(5-(2-amino-3-methoxypyridin-4-yl)-1H-imidazol-2-yl)-7-(3-chloro-2-fluoro-6-(1H-tetrazol-1-yl)phenyl)-2,3,8,8a-tetrahydroindolizin-5(1H)-one], the concentration for half-maximal inhibition (IC50) worked out at 1.4 nM on Factor XIa and 27.7 nM at human plasma kallikrein.

As for `Nc1cc(-c2[nH]c([C@@H]3CC[C@@H]4CC(c5c(-n6cnnn6)ccc(Cl)c5F)=CC(=O)N43)nc2F)c(Cl)cn1` [Example 1, (3S,8aR)-3-[5-(2-Amino-5-chloro-4-pyridyl)-4-fluoro-1H-imidazol-2-yl]-7-[3-chloro-2-fluoro-6-(tetrazol-1-yl)phenyl]-2,3,8,8a-tetrahydro-1H-indolizin-5-one], the IC50 at Factor XIa is 12.6 nM; at human plasma kallikrein it was 67.9 nM.

Consider `O=C1C=C(c2c(-n3cnnn3)ccc(Cl)c2F)C[C@H]2CC[C@@H](c3ncc(-c4ccnc(-c5ncc[nH]5)c4F)[nH]3)N12` [Example 2, (3S,8aR)-7-[3-Chloro-2-fluoro-6-(tetrazol-1-yl)phenyl]-3-[5-[3-fluoro-2-(1H-imidazol-2-yl)-4-pyridyl]-1H-imidazol-2-yl]-2,3,8,8a-tetrahydro-1H-indolizin-5-one], for which the IC50 came to 1.9 nM at Factor XIa and 9.3 nM on human plasma kallikrein.

Take `O=C1C=C(c2c(-n3cnnn3)ccc(Cl)c2F)C[C@H]2CCC(c3ncc(-c4n[nH]cc4Cl)[nH]3)N12` (stereo partly drawn) [Example 4, (8aR)-7-[3-Chloro-2-fluoro-6-(tetrazol-1-yl)phenyl]-3-[5-(4-chloro-1H-pyrazol-3-yl)-1H-imidazol-2-yl]-2,3,8,8a-tetrahydro-1H-indolizin-5-one]: the half-maximal inhibitory concentration (IC50) at Factor XIa was found to be 91.7 nM; at human plasma kallikrein, 867 nM.

Turning to `Cc1cc(C(=O)Nc2nccc(-c3cnc([C@@H]4CC[C@@H]5CC(c6c(-n7cnnn7)ccc(Cl)c6F)=CC(=O)N54)[nH]3)c2F)on1` [Example 5, N-[4-[2-[(3S,8aR)-7-[3-Chloro-2-fluoro-6-(tetrazol-1-yl)phenyl]-5-oxo-2,3,8,8a-tetrahydro-1H-indolizin-3-yl]-1H-imidazol-5-yl]-3-fluoro-2-pyridyl]-3-methyl-isoxazole-5-carboxamide], the figures for the IC50 on Factor XIa and on human plasma kallikrein were 4.2 nM and 48.8 nM, respectively.

For `CS(=O)(=O)Nc1cc(-c2[nH]c(C3CCC4CC(c5c(-n6cnnn6)ccc(Cl)c5F)=CC(=O)N43)nc2F)ccn1` (stereo not drawn) [Example 6, N-[4-[2-[7-[3-Chloro-2-fluoro-6-(tetrazol-1-yl)phenyl]-5-oxo-2,3,8,8a-tetrahydro-1H-indolizin-3-yl]-4-fluoro-1H-imidazol-5-yl]-2-pyridyl]methanesulfonamide], the half-inhibitory concentration (IC50) at Factor XIa is 0.6 nM; at human plasma kallikrein, 6.6 nM.

With `CS(=O)(=O)Nc1cc(-c2cnc(C3CCC4CC(c5c(-n6cnnn6)ccc(Cl)c5F)=CC(=O)N43)[nH]2)ccn1` (stereo not drawn) [Example 7, N-[4-[2-[7-[3-Chloro-2-fluoro-6-(tetrazol-1-yl)phenyl]-5-oxo-2,3,8,8a-tetrahydro-1H-indolizin-3-yl]-1H-imidazol-5-yl]-2-pyridyl]methanesulfonamide], the IC50 worked out at 6.4 nM on Factor XIa and 70.1 nM on human plasma kallikrein.

With `O=C1C=C(c2c(-n3cnnn3)ccc(Cl)c2F)C[C@H]2CC[C@@H](c3ncc(-c4ccc5cc[nH]c5c4)[nH]3)N12` [Example 8], the IC50 is 3.7 nM at Factor XIa and 17.7 nM at human plasma kallikrein.

On to `O=C1C=C(c2c(-n3cnnn3)ccc(Cl)c2F)CC2CC[C@@H](c3nc(-c4ccnc(OC(F)F)c4)c[nH]3)N12` (stereo partly drawn) [Example 10, (S)-7-[3-Chloro-2-fluoro-6-(tetrazol-1-yl)phenyl]-3-[4-[2-(difluoromethoxy)-4-pyridyl]-1H-imidazol-2-yl]-2,3,8,8a-tetrahydro-1H-indolizin-5-one], for which the IC50 at Factor XIa worked out at 36.1 nM; on human plasma kallikrein, 26.8 nM.

As to `CC(=O)N[C@H](C)c1ccc(-c2[nH]c([C@@H]3CCC4CC(c5c(-n6cnnn6)ccc(Cl)c5F)=CC(=O)N43)nc2F)cc1` (stereo partly drawn) [Example 11, N-[(1R)-1-[4-[2-[(3S)-7-[3-Chloro-2-fluoro-6-(tetrazol-1-yl)phenyl]-5-oxo-2,3,8,8a-tetrahydro-1H-indolizin-3-yl]-4-fluoro-1H imidazol-5-yl]phenyl]ethyl]acetamide], the figures for the IC50 on Factor XIa and on human plasma kallikrein were 11.4 nM and 30.5 nM, respectively.

With `CCOC(=O)NCc1nccc(-c2cnc([C@@H]3CC[C@@H]4CC(c5c(-n6cnnn6)ccc(Cl)c5F)=CC(=O)N43)[nH]2)c1F` [Example 12, Ethyl-N-[[4-[2-[(3S,8aR)-7-[3-Chloro-2-fluoro-6-(tetrazol-1-yl)phenyl]-5-oxo-2,3,8,8a-tetrahydro-1H-indolizin-3-yl]-1H-imidazol-5-yl]-3-fluoro-2-pyridyl]methyl]carbamate], the results for the IC50 on Factor XIa and on human plasma kallikrein were 2.7 nM and 35.5 nM, respectively.

For `CC(=O)NCc1nccc(-c2cnc([C@@H]3CC[C@@H]4CC(c5c(-n6cnnn6)ccc(Cl)c5F)=CC(=O)N43)[nH]2)c1F` [Example 13, N-[[4 [2-[(3S,8aR)-7-[3-Chloro-2-fluoro-6-(tetrazol-1-yl)phenyl]-5-oxo-2,3,8,8a-tetrahydro-1H-indolizin-3-yl]-1H-imidazol-5-yl]-3-fluoro-2-pyridyl]methyl]acetamide], the IC50 at Factor XIa was 4.2 nM; on human plasma kallikrein, 68.6 nM.

As for `O=C1C=C(c2c(-n3cnnn3)ccc(Cl)c2F)C[C@H]2CC[C@@H](c3ncc(-c4ccc5[nH]ccc5c4)[nH]3)N12` [Example 14, (3S,8aR)-3-(5-(1H-indol-5-yl)-1H-imidazol-2-yl)-7-(3-chloro-2-fluoro-6-(1H-tetrazol-1-yl)phenyl)-2,3,8,8a-tetrahydroindolizin-5(1H)-one], the results for the IC50 on Factor XIa and on human plasma kallikrein were 3.8 nM and 6.5 nM, respectively.

Turning to `Nc1cc(-c2cnc([C@@H]3CC[C@@H]4CC(c5c(-n6cnnn6)ccc(Cl)c5F)=CC(=O)N43)[nH]2)c(Cl)cn1` [Example 15, (3S,8aR)-3-[5-(2-Amino-5-chloro-4-pyridyl)-1H-imidazol-2-yl]-7-[3-chloro-2-fluoro-6-(tetrazol-1-yl)phenyl]-2,3,8,8a-tetrahydro-1H-indolizin-5-one], the results for the IC50 on Factor XIa and at human plasma kallikrein were 3.7 nM and 27.5 nM, respectively.

With `CC(=O)N[C@H](C)c1ccc(-c2cnc([C@@H]3CCC4CC(c5c(-n6cnnn6)ccc(Cl)c5F)=CC(=O)N43)[nH]2)cc1` (stereo partly drawn) [Example 16, N-[(1R)-1-[4-[2-[(3S)-7-[3-Chloro-2-fluoro-6-(tetrazol-1-yl)phenyl]-5-oxo-2,3,8,8a-tetrahydro-1H-indolizin-3-yl]-1H-imidazol-5-yl]phenyl]ethyl]acetamide], the IC50 at Factor XIa was determined as 61 nM; at human plasma kallikrein, 330 nM.

As for `O=C1C=C(c2c(-n3cnnn3)ccc(Cl)c2F)C[C@H]2CC[C@@H](c3ncc(-c4ccncc4F)[nH]3)N12` [Example 17, (3S,8aR)-7-[3-Chloro-2-fluoro-6-(tetrazol-1-yl)phenyl]-3-[5-(3-fluoro-4-pyridyl)-1H-imidazol-2-yl]-2,3,8,8a-tetrahydro-1H-indolizin-5-one], the figures for the IC50 at Factor XIa and on human plasma kallikrein were 3 nM and 29 nM, respectively.

In the case of `CC(=O)Nc1cc(-c2cnc([C@@H]3CCC4CC(c5c(-n6cnnn6)ccc(Cl)c5F)=CC(=O)N43)[nH]2)c(Cl)cn1` (stereo partly drawn) [Example 18, N-[5-Chloro-4 [2-[(3S)-7-[3-Chloro-2-fluoro-6-(tetrazol-1-yl)phenyl]-5-oxo-2,3,8,8a-tetrahydro-1H-indolizin-3-yl]-1H-imidazol-5-yl]-2-pyridyl]acetamide], the IC50 stood at 82.1 nM on Factor XIa and 465 nM on human plasma kallikrein.

Turning to `Cc1c(-c2cnc([C@@H]3CCC4CC(c5c(-n6cnnn6)ccc(Cl)c5F)=CC(=O)N43)[nH]2)ccnc1N` (stereo partly drawn) [Example 21, (3S)-3-(5-(2-Amino-3-methylpyridin-4-yl)-1H-imidazol-2-yl)-7-(3-chloro-2-fluoro-6-(1H-tetrazol-1-yl)phenyl)-2,3,8,8a-tetrahydroindolizin-5(1H)-one], the IC50 was found to be 6.3 nM at Factor XIa and 65.5 nM at human plasma kallikrein.

As for `O=C1C=C(c2c(OC(F)F)ccc(Cl)c2F)C[C@H]2CC[C@@H](c3nc(F)c(-c4ccnc(CO)c4F)[nH]3)N12` [Example 23, (3S,8aR)-7-(3-Chloro-6-(difluoromethoxy)-2-fluorophenyl)-3-(4-fluoro-5-(3-fluoro-2-(hydroxymethyl)pyridin-4yl)-1H-imidazol-2-yl)-2,3,8,8a-tetrahydroindolizin-5(1H)-one], the results for the IC50 at Factor XIa and on human plasma kallikrein were 50.1 nM and 265 nM, respectively.

Regarding `O=C1C=C(c2c(-n3cnnn3)ccc(Cl)c2F)C[C@H]2CC[C@@H](c3ncc(-c4cnc5[nH]ccc5c4)[nH]3)N12` [Example 24, (3S,8aR)-3-(5-(1H-pyrrolo[2,3-b]pyridin-5-yl)-1H-imidazol-2-yl)-7-(3-chloro-2-fluoro-6-(1H-tetrazol-1-yl)phenyl)-2,3,8,8a-tetrahydroindolizin-5(1H)-one], the values for the IC50 at Factor XIa and on human plasma kallikrein were 74.4 nM and 92 nM, respectively.
